In brackets after ≈: the same amount, converted by molar mass.
Columns and labels:
[1] = pKa of a sample dissolved in methylcellosolve/water 4:1; format: physicochemical
[2] = tested on: Staphylococcus epieermidis ATCC 12228; assay: In vitro antibacterial activity, two-fold dilution MIC in microtiter system; format: cell-based, Staphylococcus epidermidis; settings: Isosensitest broth, inoculum about 10^4 cfu/ml, 18-24 h at 37° C.
Protocol: (§1) The in vitro antibacterial activity of L 17392 was determined using the two-fold dilution method in microtiter system. Todd-Hewitt broth (Difco) was used for streptococci and Isosensitest broth (Oxoid) for staphylococci and gram-negative bacteria. Overnight broth cultures were diluted so that the final inoculum was about 10^4 colony-forming units per ml (cfu/ml).

[3] = tested on: clinical isolate methicillin-resistant staphylococci (S. aureus, S. epidermidis); assay: Antibacterial activity against methicillin-resistant staphylococci, in words; format: cell-based; settings: various clinical isolates
Protocol: as §1

S. epidermidis L 1372 = assay: MIC against clinical isolate methicillin-resistant staphylococci; format: cell-based
Protocol: as §1

S. epidermidis L 785 = assay: as above; format: cell-based
Protocol: as §1

S. aureus L 1524 = assay: as above; format: cell-based
Protocol: as §1

S. epidermidis L 835 = assay: as above; format: cell-based
Protocol: as §1

S. epidermidis L 1378 = assay: as above; format: cell-based
Protocol: as §1

S. aureus L 1096 = assay: as above; format: cell-based
Protocol: as §1

S. aureus L 1097 = assay: as above; format: cell-based
Protocol: as §1

S. aureus L 1526 = assay: as above; format: cell-based
Protocol: as §1

S. epidermidis L 1142 = assay: as above; format: cell-based
Protocol: as §1

[4] = tested on: Escherichia coli SKF 12140; assay: In vitro antibacterial activity, two-fold dilution MIC in microtiter system; format: cell-based; settings: Isosensitest broth, inoculum about 10^4 cfu/ml, 18-24 h at 37° C.
Protocol: as §1

[5] = tested on: Streptococcus pyogenes C 203; assay: as above; format: cell-based; settings: Todd-Hewitt broth, inoculum about 10^4 cfu/ml, 18-24 h at 37° C.
Protocol: as §1

[6] = tested on: Pseudomonas aeruginosa ATCC 10145; assay: as above; format: cell-based; settings: Isosensitest broth, inoculum about 10^4 cfu/ml, 18-24 h at 37° C.
Protocol: as §1

[7] = tested on: Proteus vulgaris × 19 H ATCC 881; assay: as above; format: cell-based; settings: Isosensitest broth, inoculum about 10^4 cfu/ml, 18-24 h at 37° C.
Protocol: as §1

[8] = tested on: Streptococcus faecalis ATCC 7080; assay: as above; format: cell-based; settings: Todd-Hewitt broth, inoculum about 10^4 cfu/ml, 18-24 h at 37° C.
Protocol: as §1

[9] = tested on: Streptococcus pneumoniae UC 41; assay: as above; format: cell-based; settings: Todd-Hewitt broth, inoculum about 10^4 cfu/ml, 18-24 h at 37° C.
Protocol: as §1

[10] = tested on: Staphylococcus aureus ATCC 6538; assay: as above; format: cell-based; settings: Isosensitest broth, inoculum about 10^4 cfu/ml, 18-24 h at 37° C.
Protocol: as §1

[11] = Solubility (physico-chemical characteristics); format: physicochemical
[12] = tested on: Staplylococcus aureus Tour; assay: In vitro antibacterial activity, two-fold dilution MIC in microtiter system; format: cell-based, Staphylococcus aureus
Protocol: as §1, with “(cfu/ml). […] The obtained results are reported in Table I below: | ^(a) Inoculum: 10^6 cfu/ml | ^(b) Determined in the presence of 30% bovine serum” for “(cfu/ml).”

[13] = tested on: staphylocci (S. aureus, S. epidermidis); assay: Antibacterial activity against staphylococci, in words; format: cell-based
Protocol: as §1

[14] = Potentiometric titration profile (pH1/2 values); format: physicochemical; settings: methylcellosolve:water 4:1, titration with 0.01N NaOH

deglucoteicoplanin benzyl ester, hydrochloride
pKa value [1]: 6.67

N[C@H]1C(=O)N[C@@H]2Cc3ccc(c(Cl)c3)Oc3cc4cc(c3O)Oc3ccc(cc3Cl)[C@@H](O)[C@@H]3NC(=O)[C@H](NC(=O)[C@@H]4NC(=O)[C@@H](NC2=O)c2cc(O)cc(c2)Oc2cc1ccc2O)c1ccc(O)c(c1)-c1c(O)cc(O)cc1[C@@H](C(=O)O)NC3=O [antibiotic L 17392, deglucoteicoplanin]
MIC [2]: 0.0125 mg/L (≈ 0.0104 µM)
activity against methicillin-resistant staphylococci (in words) [3]: very effective
MIC (S. epidermidis L 1372): 0.2 mg/L (≈ 0.167 µM)
MIC (S. epidermidis L 785): 0.05 mg/L (≈ 0.0417 µM)
MIC (S. aureus L 1524): 0.1 mg/L (≈ 0.0834 µM)
MIC (S. epidermidis L 835): 0.05 mg/L (≈ 0.0417 µM)
MIC (S. epidermidis L 1378): 0.05 mg/L (≈ 0.0417 µM)
MIC (S. aureus L 1096): 0.05 mg/L (≈ 0.0417 µM)
MIC (S. aureus L 1097): 0.05 mg/L (≈ 0.0417 µM)
MIC (S. aureus L 1526): 0.05 mg/L (≈ 0.0417 µM)
MIC (S. epidermidis L 1142): 0.05 mg/L (≈ 0.0417 µM)
MIC [4]: 25 mg/L (≈ 20.9 µM)
MIC [5]: 0.05 mg/L (≈ 0.0417 µM)
MIC [6]: > 100 mg/L
MIC [7]: 50 mg/L (≈ 41.7 µM)
MIC [8]: 0.1 mg/L (≈ 0.0834 µM)
MIC [9]: 0.05 mg/L (≈ 0.0417 µM)
MIC [10]: 0.025 mg/L (≈ 0.0209 µM)
solubility ([11]; aqueous methanol, ethanol and acetone): soluble
solubility ([11]; ethyl alcohol and dimethylformamide): slightly soluble
solubility ([11]; water at a pH higher than 9): soluble
MIC ([12]; Determined in the presence of 30% bovine serum): 0.2 mg/L
MIC ([12]; Inoculum: 10^6 cfu/ml): 0.2 mg/L (≈ 0.167 µM)
MIC ([12]; Isosensitest broth, inoculum about 10^4 cfu/ml, 18-24 h at 37° C.): 0.05 mg/L (≈ 0.0417 µM)
activity against staphylococci (in words) [13]: very active

CC(=O)N[C@@H]1[C@@H](O[C@H]2c3ccc(c(Cl)c3)Oc3cc4cc(c3O)Oc3ccc(cc3Cl)C[C@@H]3NC(=O)[C@@H](N)c5ccc(O)c(c5)Oc5cc(O)cc(c5)[C@@H](NC3=O)C(=O)N[C@@H]4C(=O)N[C@@H]3C(=O)N[C@H]2C(=O)N[C@@H](C(=O)O)c2cc(O)cc(O)c2-c2cc3ccc2O)O[C@@H](CO)[C@H](O)[C@H]1O (stereo in doubt) [antibiotic L 17046]
solubility ([11]; dimethylformamide, dimethylsulfoxide, propyleneglycol and methylcellosolve): freely soluble
solubility ([11]; methanol): slightly soluble
solubility ([11]; n-hexane, ethyl ether and acetone): almost insoluble
solubility ([11]; water at pH>8.0): freely soluble
pH1/2 value, third titration slope ([14]; five equivalents): 11
pH1/2 value, first titration slope ([14]; one equivalent): 5.0
pH1/2 value, second titration slope ([14]; one equivalent): 7.0

Reference: US4882419A, “Process for preparing antibiotic L 17392 (deglucoteicoplanin)” (Gruppo Lepetit S.p.A., priority 1984, dated 1989)
